These compounds were tested against T1, PD-1/PD-L1 (Homo sapiens, UniProt Q9NZQ7) (assay: PD-1/PD-L1 Homogenous Time-Resolved Fluorescence (HTRF) binding assay). Conditions: PD-L1-His 10 nM, PD-1-Ig 20 nM; numeric IC50; read-out: Range or IC50.
T1 construct: made in house; host or cells: HEK293T
Summary of the method: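 Binding was measured by HTRF in dPBS with 0.1% BSA and 0.05% Tween-20. Detection used europium cryptate anti-Ig (1 nM final) and APC anti-His (20 nM final) added over the binding reaction.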

T1 sequence (Q9NZQ7 with tags, fused parts or gaps): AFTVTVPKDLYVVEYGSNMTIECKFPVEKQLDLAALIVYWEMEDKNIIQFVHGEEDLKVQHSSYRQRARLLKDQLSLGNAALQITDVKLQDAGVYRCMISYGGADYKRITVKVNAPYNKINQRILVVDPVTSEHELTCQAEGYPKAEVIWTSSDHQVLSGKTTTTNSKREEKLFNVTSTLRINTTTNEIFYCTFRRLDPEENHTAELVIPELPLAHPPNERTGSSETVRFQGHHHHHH

| IC50 [nM] | Compound |
| --- | --- |
| 3 | Cc1c(COc2cc(OCc3cncc(C#N)c3)c(CN[C@@H](Cc3ccc(O)cc3)C(=O)O)cc2Cl)cccc1-c1cccc(OCCCN2CC[C@@H](O)C2)c1C [Example 4157, (5-chloro-2-((5-cyanopyridin-3-yl)methoxy)-4-((3′-(3-((R)-3-hydroxypyrrolidin-1-yl)propoxy)-2,2′-dimethyl-[1,1′-biphenyl]-3-yl)methoxy)benzyl)-L-tyrosine] |
| 3 | Cc1ccc(COc2cc(OCc3cccc(-c4cccc(OCCCN5CC[C@@H](O)C5)c4C)c3C)c(Cl)cc2CNC(C)(CO)CO)cc1C [Example 4506, (R)-2-((5-chloro-2-((3,4-dimethylbenzyl)oxy)-4-((3′-(3-(3-hydroxypyrrolidin-1-yl)propoxy)-2,2′-dimethyl-[1,1′-biphenyl]-3-yl)methoxy)benzyl)amino)-2-methylpropane-1,3-diol] |
| 3 | Cc1c(COc2cc(OCc3cncc(C#N)c3)c(C(C)NC(CO)CO)cc2Cl)cccc1-c1cccc(OCCCN2CC[C@@H](O)C2)c1C (stereo partly drawn) [Example 4137, 5-((4-chloro-2-(1-((1,3-dihydroxypropan-2-yl)amino)ethyl)-5-((3′-(3-((R)-3-hydroxypyrrolidin-1-yl)propoxy)-2,2′-dimethyl-[1,1′-biphenyl]-3-yl)methoxy)phenoxy)methyl)nicotinonitrile] |

Same assay, conditions: PD-L1-His 10 nM, PD-1-Ig 20 nM; value given as range class; read-out: Range or IC50

| Compound | IC50 [nM] |
| --- | --- |
| Cc1c(COc2cc(OCc3cncc(C#N)c3)c(CNC(CO)CO)cc2Cl)cccc1-c1cccc(OC[C@H]2CCNC2)c1C [Example 2323, (S)-5-((4-chloro-2-(((1,3-dihydroxypropan-2-yl)amino)methyl)-5-((2,2′-dimethyl-3′-(pyrrolidin-3-ylmethoxy)-[1,1′-biphenyl]-3-yl)methoxy)phenoxy)methyl)nicotinonitrile] | 0.21 to 10 |
| Cc1c(COc2cc(OCc3cncc(C#N)c3)c(CN(CC3CC3)C(C)(CO)CO)cc2Cl)cccc1-c1cccc(OCCCN2CC[C@@H](O)C2)c1Cl [Example 2114, (R)-5-((4-chloro-5-((2′-chloro-3′-(3-(3-hydroxypyrrolidin-1-yl)propoxy)-2-methyl-[1,1′-biphenyl]-3-yl)methoxy)-2-(((cyclopropylmethyl)(1,3-dihydroxy-2-methylpropan-2-yl)amino)methyl)phenoxy)methyl)nicotinonitrile] | 0.21 to 10 |
| Cc1c(COc2cc(OCc3cncc(C#N)c3)c(CNC(C)(C)CO)cc2Cl)cccc1-c1cccc(OCCCN2CC[C@@H](O)C2)c1Cl [Example 2067, (R)-5-((4-chloro-5-((2′-chloro-3′-(3-(3-hydroxypyrrolidin-1-yl)propoxy)-2-methyl-[1,1′-biphenyl]-3-yl)methoxy)-2-(((1-hydroxy-2-methylpropan-2-yl)amino)methyl)phenoxy)methyl)nicotinonitrile] | 0.21 to 10 |
| Cc1c(COc2cc(OCc3cncc(C#N)c3)c(CN(C)C(C)(CO)CO)c(C)c2Cl)cccc1-c1cccc(OCCCN2CC[C@@H](O)C2)c1C [Example 4107, (R)-5-((4-chloro-2-(((1,3-dihydroxy-2-methylpropan-2-yl)(methyl)amino)methyl)-5-((3′-(3-(3-hydroxypyrrolidin-1-yl)propoxy)-2,2′-dimethyl-[1,1′-biphenyl]-3-yl)methoxy)-3-methylphenoxy)methyl)nicotinonitrile] | 0.21 to 10 |
| Cc1c(COc2cc(OCc3cncc(C#N)c3)c(C(C)N(C)[C@@H](CO)C(=O)O)cc2Cl)cccc1-c1cccc(OCCCN2CC[C@@H](O)C2)c1C (stereo partly drawn) [Example 4139, N-(1-(5-chloro-2-((5-cyanopyridin-3-yl)methoxy)-4-((3′-(3-((R)-3-hydroxypyrrolidin-1-yl)propoxy)-2,2′-dimethyl-[1,1′-biphenyl]-3-yl)methoxy)phenyl)ethyl)-N-methyl-L-serine] | 0.21 to 10 |
| Cc1c(COc2cc(OCc3cncc(C#N)c3)c(CNC(CO)CO)cc2Cl)cccc1-c1cccc(CN(C)CCN2CCS(=O)(=O)CC2)c1C [Example 4080, 5-((4-chloro-2-(((1,3-dihydroxypropan-2-yl)amino)methyl)-5-((3′-(((2-(1,1-dioxidothiomorpholino)ethyl)(methyl)amino)methyl)-2,2′-dimethyl-[1,1′-biphenyl]-3-yl)methoxy)phenoxy)methyl)nicotinonitrile] | 0.21 to 10 |
| Cc1c(COc2cc(OCc3cncc(C#N)c3)c(CNC(CO)(CO)CO)c(C)c2Cl)cccc1-c1cccc(OCCCN2CC[C@@H](O)C2)c1C [Example 4104, (R)-5-((4-chloro-2-(((1,3-dihydroxy-2-(hydroxymethyl)propan-2-yl)amino)methyl)-5-((3′-(3-(3-hydroxypyrrolidin-1-yl)propoxy)-2,2′-dimethyl-[1,1′-biphenyl]-3-yl)methoxy)-3-methylphenoxy)methyl)nicotinonitrile] | 0.21 to 10 |
| N#Cc1cncc(COc2cc(OCc3cccc(-c4cccc(OCCCNC[C@H](O)CO)c4Cl)c3Cl)c(Cl)cc2CN2CCCC[C@H]2C(=O)O)c1 [Example 2049, (S)-1-(5-chloro-2-((5-cyanopyridin-3-yl)methoxy)-4-((2,2′-dichloro-3′-(3-(((S)-2,3-dihydroxypropyl)amino)propoxy)-[1,1′-biphenyl]-3-yl)methoxy)benzyl)piperidine-2-carboxylic Acid] | 0.21 to 10 |
| Cc1c(COc2cc(OCc3cncc(C#N)c3)c(CN[C@](C)(CO)C(=O)O)cc2Cl)cccc1-c1cccc(OCCCN2CCC(CO)(C(=O)O)C2)c1Cl (stereo partly drawn) [Example 1108, 1-(3-((3′-((4-((((R)-2-carboxy-1-hydroxypropan-2-yl)amino)methyl)-2-chloro-5-((5-cyanopyridin-3-yl)methoxy)phenoxy)methyl)-2-chloro-2′-methyl-[1,1′-biphenyl]-3-yl)oxy)propyl)-3-(hydroxymethyl)pyrrolidine-3-carboxylic Acid] | 0.21 to 10 |

The remaining lines, values ahead:

| IC50 [nM] | Compound |
| --- | --- |
| 10 to 100 | CNC(=O)c1cccc(-c2cccc(COc3cc(OCc4cc(F)cc(F)c4)c(CNC(C)(CO)CO)cc3Cl)c2C)c1C [Example 4029, 3′-((2-chloro-5-((3,5-difluorobenzyl)oxy)-4-(((1,3-dihydroxy-2-methylpropan-2-yl)amino)methyl)phenoxy)methyl)-N,2,2′-trimethyl-[1,1′-biphenyl]-3-carboxamide] |
| 100 to 2000 | Cc1cccc(C)c1COc1cc(OCc2cccc(-c3cccc(OCCCN4CC[C@@H](O)C4)c3C)c2C)c(Cl)cc1CNC(C)(CO)CO [Example 4514, (R)-2-((5-chloro-2-((2,6-dimethylbenzyl)oxy)-4-((3′-(3-(3-hydroxypyrrolidin-1-yl)propoxy)-2,2′-dimethyl-[1,1′-biphenyl]-3-yl)methoxy)benzyl)amino)-2-methylpropane-1,3-diol] |
| 0.21 to 10 | Cc1c(COc2cc(OCc3cncc(C#N)c3)c(CN3CCCCC3CO)cc2Cl)cccc1-c1cccc(OCCCN2CC[C@@H](O)C2)c1C (stereo partly drawn) [Example 2334, 5-((4-chloro-2-((2-(hydroxymethyl)piperidin-1-yl)methyl)-5-((3′-(3-((R)-3-hydroxypyrrolidin-1-yl)propoxy)-2,2′-dimethyl-[1,1′-biphenyl]-3-yl)methoxy)phenoxy)methyl)nicotinonitrile] |
| 0.21 to 10 | COC(=O)[C@@H]1CCN(CCCOc2cccc(-c3cccc(COc4cc(OCc5cncc(S(C)(=O)=O)c5)c(CN[C@](C)(CO)C(=O)O)cc4Cl)c3C)c2C)C1 [Example 1082, (R)-2-((5-chloro-4-((3′-(3-((R)-3-(methoxycarbonyl)pyrrolidin-1-yl)propoxy)-2,2′-dimethyl-[1,1′-biphenyl]-3-yl)methoxy)-2-((5-(methylsulfonyl)pyridin-3-yl)methoxy)benzyl)amino)-3-hydroxy-2-methylpropanoic Acid] |
| 10 to 100 | Cc1c(COc2cc(OCc3cncc(C#N)c3)c(CN[C@@](C)(CO)C(=O)O)cc2Cl)cccc1-c1cccc(OCC(=O)N2CC[C@H](O)C2)c1 [Example 1004, (S)-2-((5-chloro-2-((5-cyanopyridin-3-yl)methoxy)-4-((3′-(2-((S)-3-hydroxypyrrolidin-1-yl)-2-oxoethoxy)-2-methyl-[1,1′-biphenyl]-3-yl)methoxy)benzyl)amino)-3-hydroxy-2-methylpropanoic Acid] |
| 10 to 100 | Cc1c(COc2cc(OCc3cncc(C#N)c3)c(CN3C[C@@H](O)C[C@H]3C(=O)O)cc2Cl)cccc1-c1cccc(OCC(=O)N2CC[C@@H](O)C2)c1 [Example 1008, (2S,4S)-1-(5-chloro-2-((5-cyanopyridin-3-yl)methoxy)-4-((3′-(2-((R)-3-hydroxypyrrolidin-1-yl)-2-oxoethoxy)-2-methyl-[1,1′-biphenyl]-3-yl)methoxy)benzyl)-4-hydroxypyrrolidine-2-carboxylic Acid] |
| 0.21 to 10 | CCOC(=O)C1(CO)CCN(CCCOc2cccc(-c3cccc(COc4cc(OCc5cncc(C#N)c5)c(CN[C@](C)(CO)C(=O)O)cc4Cl)c3C)c2Cl)C1 (stereo partly drawn) [Example 1103, (2R)-2-((5-chloro-4-((2′-chloro-3′-(3-(3-(ethoxycarbonyl)-3-(hydroxymethyl)pyrrolidin-1-yl)propoxy)-2-methyl-[1,1′-biphenyl]-3-yl)methoxy)-2-((5-cyanopyridin-3-yl)methoxy)benzyl)amino)-3-hydroxy-2-methylpropanoic Acid] |
| 10 to 100 | Cc1c(COc2cc(OCc3cncc(C#N)c3)c(CN3CCCC[C@H]3C(=O)Oc3ccc([N+](=O)[O-])cc3)cc2Cl)cccc1-c1cccc(OCCCN2CC[C@@H](O)C2)c1C [Example 2370, 4-nitrophenyl (S)-1-(5-chloro-2-((5-cyanopyridin-3-yl)methoxy)-4-((3′-(3-((R)-3-hydroxypyrrolidin-1-yl)propoxy)-2,2′-dimethyl-[1,1′-biphenyl]-3-yl)methoxy)benzyl)piperidine-2-carboxylate] |
